Measured values: ChEMBL document CHEMBL1129417, “Glucose transport-enhancing and hypoglycemic activity of 2-methyl-2-phenoxy-3-phenylpropanoic acids” (1996)

Legend:
3T3-L1 [1] = assay: In vitro measurements 2-Deoxyglucose (2DG) uptake in vehicle treated 3T3-L1 adipocytes at 100 uM dose.; type: functional
L6 [2] = assay: compound was evaluated for their acute effects in vitro by measuring 2-Deoxyglucose (2DG) uptake in vehicle treated L6 […] at 60 uM dose.; type: functional
Mus musculus [3] = assay: In vivo hypoglycemic activity expressed as glucose lowering relative to positive control in 6-8 week old C57BL/6J ob/ob mouse at 10 mg/kg; type: functional
Mus musculus [4] = assay: In vivo hypoglycemic activity expressed as glucose lowering relative to positive control in 6-8 week old C57BL/6J ob/ob mouse at 5 mg/kg.; type: functional
Rattus norvegicus [5] = species on record: Rattus norvegicus; assay: Inhibition of gluconeogenesis in rat; type: functional
Mus musculus [6] = assay: Compound was tested in vivo for hypoglycemic activity expressed as Glucose lowering relative to positive control in 6-8 week old C57BL/6J ob/ob mouse at 50 mg/kg; type: functional
3T3-L1 [7] = assay: Acute effects in vitro by measuring 2-deoxyglucose (2DG) uptake in vehicle treated 3T3-L1 adipocytes at 10 uM dose.; type: functional
3T3-L1 [8] = assay: Acute effects in vitro by measuring 2-deoxyglucose (2DG) uptake in vehicle treated 3T3-L1 adipocytes at 30 uM dose.; type: functional
3T3-L1 [9] = assay: In vitro by measurements of 2-Deoxyglucose (2DG) uptake in vehicle treated 3T3-L1 adipocytes at 3 uM dose.; type: functional
L6 [10] = assay: compound was evaluated for their acute effects in vitro by measuring 2-Deoxyglucose (2DG) uptake in vehicle treated L6 […] at 100 uM dose.; type: functional
L6 [11] = assay: compound was evaluated for their acute effects in vitro by measuring 2-Deoxyglucose (2DG) uptake in vehicle treated L6 […] at 30 uM dose.; type: functional
Mus musculus [12] = assay: compound was tested in vivo for hypoglycemic activity expressed as Glucose lowering relative to positive control in 6-8 week old C57BL/6J ob/ob mouse at 25 mg/kg; type: functional
Mus musculus [13] = assay: compound was tested in vivo for hypoglycemic activity expressed as Glucose lowering relative to positive control in 6-8 week old C57BL/6J ob/ob mouse at 50 mg/kg; type: functional
Rattus norvegicus [14] = species on record: Rattus norvegicus; assay: Percentage inhibition of Glucagon-stimulated Gluconeogenesis in Isolated Rat Hepatocytes in vitro; type: functional, Hepatocyte
Rattus norvegicus [15] = species on record: Rattus norvegicus; assay: Percentage inhibition of basal stimulated Gluconeogenesis in Isolated Rat Hepatocytes in vitro; type: functional, Hepatocyte
Mus musculus [16] = assay: compound was tested in vivo for hypoglycemic activity expressed as Glucose lowering relative to positive control in 6-8 week old C57BL/6J ob/ob mouse at 10 uM dose.; type: functional
Mus musculus [17] = assay: compound was tested in vivo for hypoglycemic activity expressed as Glucose lowering relative to positive control in 6-8 week old C57BL/6J ob/ob mouse at 1 uM dose.; type: functional
Mus musculus [18] = assay: compound was tested in vivo for hypoglycemic activity expressed as Glucose lowering relative to positive control in 6-8 week old C57BL/6J ob/ob mouse at 5 uM dose.; type: functional
3T3-L1 [19] = assay: compound was evaluated for their acute effects in vitro by measuring 2-Deoxyglucose (2DG) uptake in vehicle treated 3T3-L1 adipocytes at 0.3 uM dose.; type: functional
3T3-L1 [20] = assay: compound was evaluated for their acute effects in vitro by measuring 2-Deoxyglucose (2DG) uptake in vehicle treated 3T3-L1 adipocytes at 1 uM dose.; type: functional
3T3-L1 [21] = assay: In vitro measurements of 2-Deoxyglucose (2DG) uptake in vehicle treated 3T3-L1 adipocytes at 60 uM dose.; type: functional
3T3-L1 [22] = assay: compound was evaluated for their acute effects in vitro by measuring 2-Deoxyglucose (2DG) uptake in vehicle treated 3T3-L1 adipocytes at concentration of 10 micro M; type: functional
3T3-L1 [23] = assay: compound was evaluated for their acute effects in vitro by measuring 2-Deoxyglucose (2DG) uptake in vehicle treated 3T3-L1 adipocytes at concentration of 3 micro M; type: functional
3T3-L1 [24] = assay: compound was evaluated for their acute effects in vitro by measuring 2-Deoxyglucose (2DG) uptake in vehicle treated 3T3-L1 adipocytes at concentration of 30 micro M; type: functional
L6 [25] = assay: Compound was evaluated for their acute effects in vitro by measuring 2-Deoxyglucose (2DG) uptake in vehicle treated L6 […] at 100 uM dose.; type: functional
L6 [26] = assay: Compound was evaluated for their acute effects in vitro by measuring 2-Deoxyglucose (2DG) uptake in vehicle treated L6 […] at 10 uM dose.; type: functional
L6 [27] = assay: Compound was evaluated for their acute effects in vitro by measuring 2-Deoxyglucose (2DG) uptake in vehicle treated L6 […] at 1 uM dose.; type: functional
L6 [28] = assay: Compound was evaluated for their acute effects in vitro by measuring 2-Deoxyglucose (2DG) uptake in vehicle treated L6 […] at 3 uM dose.; type: functional
L6 [29] = assay: Compound was evaluated for their acute effects in vitro by measuring 2-Deoxyglucose (2DG) uptake in vehicle treated L6 […] at 60 uM dose.; type: functional
Mus musculus [30] = assay: Basal glucose(mg/dl) level when compound given at 5 mg/kg/day in pair feeding study with ob/ob mice; type: functional
Mus musculus [31] = assay: Food intake (g/5 mice/ 5 days) when compound given at 5 mg/kg/day in pair feeding study with ob/ob mice; type: functional
Mus musculus [32] = assay: Glucose(mg/dl) level, on day 5 when compound given at 5 mg/kg/day in pair feeding study with ob/ob mice; type: functional
Mus musculus [33] = assay: Net body weight delta (g)when compound given at 5 mg/kg/day in pair feeding study with ob/ob mice; type: functional
Mus musculus [34] = assay: In vivo hypoglycemic activity expressed as glucose lowering relative to positive control in 6-8 week old C57BL/6J ob/ob mouse at 1 mg/kg.; type: functional
Mus musculus [35] = assay: compound was tested in vivo for hypoglycemic activity expressed as Glucose lowering relative to positive control in 6-8 week old C57BL/6J ob/ob mouse at 20 mg/kg; type: functional
Rattus norvegicus [36] = species on record: Rattus norvegicus; assay: Percentage inhibition of Glucagon stimulated Gluconeogenesis in Isolated Rat Hepatocytes in vitro; type: functional, Hepatocyte
L6 [37] = assay: Compound was evaluated for their acute effects in vitro by measuring 2-Deoxyglucose (2DG) uptake in vehicle treated L6 […] at 30 uM dose.; type: functional
3T3-L1 [38] = assay: compound was evaluated for their acute effects in vitro by measuring 2-Deoxyglucose (2DG) uptake in vehicle treated 3T3-L1 adipocytes at 0.5 uM dose.; type: functional
Mus musculus [39] = assay: compound was tested in vivo for hypoglycemic activity expressed as Glucose lowering relative to positive control in 6-8 week old C57BL/6J ob/ob mouse at 2.5 mg/kg; type: functional
3T3-L1 [40] = assay: compound was evaluated for their acute effects in vitro by measuring 2-Deoxyglucose (2DG) uptake in vehicle treated 3T3-L1 adipocytes at 300 uM dose.; type: functional
Mus musculus [41] = assay: compound was tested in vivo for hypoglycemic activity in 6-8 week old C57BL/6J ob/ob mouse at 0.5 mg/kg; type: functional
Mus musculus [42] = assay: compound was tested in vivo for hypoglycemic activity in 6-8 week old C57BL/6J ob/ob mouse at 5 mg/kg; type: functional
Mus musculus [43] = assay: compound was tested in vivo for hypoglycemic activity expressed as Glucose lowering relative to positive control in 6-8 week old C57BL/6J ob/ob mouse at 0.1 mg/kg; type: functional
Mus musculus [44] = assay: compound was tested in vivo for hypoglycemic activity expressed as Glucose lowering relative to positive control in 6-8 week old C57BL/6J ob/ob mouse at 0.5 mg/kg; type: functional
[45] = Rattus norvegicus, read-out: ED50

SMILES | Basal uptake (3T3-L1 [1]) [%] | Hypoglycemic activity (Mus musculus [3]) [%] | Hypoglycemic activity (Mus musculus [4]) [%] | ED50 (Rattus norvegicus [5]; [45]) [mg/kg] | Basal uptake (3T3-L1 [7]) [%] | Basal uptake (3T3-L1 [8]) [%] | Basal uptake (3T3-L1 [9]) [%] | Hypoglycemic activity (Mus musculus [13]) [%] | Basal uptake (3T3-L1 [21]) [%] | Basal uptake (3T3-L1 [22]) [%] | Basal uptake (3T3-L1 [23]) [%] | Basal uptake (3T3-L1 [24]) [%] | Hypoglycemic activity (Mus musculus [34]) [%] | further results
CC(C)c1ccc(OC(Cc2ccc(C(F)(F)F)cc2)C(=O)O)cc1 (centres undefined) | 605 | 42 | 30 | 10 |  |  |  |  |  |  |  |  |  | Basal uptake (L6 [2]): 104%; Hypoglycemic activity (Mus musculus [6]): 74%
Cc1ccc(S(=O)(=O)C(CCCCCc2ccc(Cl)cc2)C(=O)O)cc1 (centres undefined) | 250 | 22 |  | 25 | 93 | 100 | 114 | 71 |  |  |  |  |  | Basal uptake (L6 [2]): 124%; Basal uptake (L6 [10]): 134%; Basal uptake (L6 [11]): 88%; Hypoglycemic activity (Mus musculus [12]): 60%
CC(C)c1ccc(OC(Cc2ccc(Cl)cc2)C(=O)O)cc1 (centres undefined) | 150 | 58 | 26 | 10 |  |  |  | 82 |  |  |  |  |  | Inhibition (Rattus norvegicus [14]): 20%; Inhibition (Rattus norvegicus [15]): 32%
CC(C)c1ccc(OC(C)(Cc2cccc(Cl)c2)C(=O)[O-])cc1.[Na+] (centres undefined) |  |  |  | 5 |  |  |  |  |  |  |  |  |  | Hypoglycemic activity (Mus musculus [16]): 101%; Hypoglycemic activity (Mus musculus [17]): 47%; Hypoglycemic activity (Mus musculus [18]): 32%
CC(C)c1ccc(OC(C)(Cc2ccc(Cl)cc2)C(=O)O)cc1 (stereo in doubt; 26) | 220 | 111 |  | 1 | 94 | 100 | 98 | 83 | 110 | 200 | 139 | 291 |  | Basal uptake (3T3-L1 [19]): 106%; Basal uptake (3T3-L1 [20]): 86%; Basal uptake (L6 [25]): 88%; Basal uptake (L6 [26]): 96%; Basal uptake (L6 [27]): 101%; Basal uptake (L6 [28]): 97%; Basal uptake (L6 [29]): 108%; Basal glucose (Mus musculus [30]): 341 mg/dL; Food intake (Mus musculus [31]): 132 g 5mice-1 5days-1; Glucose (Mus musculus [32]): 223 mg/dL; Net body weight delta (Mus musculus [33]): 0.4 g; Hypoglycemic activity (Mus musculus [34]; 1 mg/kg): 50%; Hypoglycemic activity (Mus musculus [35]): 104%; Hypoglycemic activity (Mus musculus [12]): 90%; Hypoglycemic activity (Mus musculus [4]; 5 mg/kg): 77%; Inhibition (Rattus norvegicus [36]): 22%; Inhibition (Rattus norvegicus [15]): 36%; Basal uptake (L6 [37]): 87%
CC(C)c1ccc(OC(C)(C(=O)O)C(C)c2ccc(Cl)cc2)cc1 (stereo in doubt; 84) |  |  | 77 |  | 131 | 128 | 102 |  | 214 |  |  |  | <0 | Basal uptake (3T3-L1 [38]): 98%; Basal uptake (3T3-L1 [20]): 99%; Hypoglycemic activity (Mus musculus [3]; 10 mg/kg): 142%; Hypoglycemic activity (Mus musculus [39]): 62%; ED50 (Rattus norvegicus [5]): 2.5 mg/kg
CCc1cccc(CC(C)(Oc2ccc(C(C)C)cc2)C(=O)[O-])c1.[Na+] (centres undefined) |  | 147 | 101 | 0.5 | 127 |  | 102 |  |  | 194 | 131 | 246 | 76 | Basal uptake (3T3-L1 [40]): 117%; Hypoglycemic (Mus musculus [41]): <0
CCc1ccc(CC(C)(Oc2ccc(C(C)C)cc2)C(=O)[O-])cc1.[Na+] (centres undefined) |  | 119 |  | 0.1 |  |  |  |  | 109 | 108 | 94 | 216 | 86 | Glucose lowering relative to positive control (Mus musculus [42]): 109%; Hypoglycemic activity (Mus musculus [43]): 55%; Hypoglycemic activity (Mus musculus [44]): 76%
